Converted amounts (≈) assume the structure as drawn. Like-named read-outs stand apart in the source and are kept apart here.
Key:
Format in all cases: cell-based
[1] = system: Staphylococcus aureus NRS384 (MRSA); experiment: Broth microdilution MIC, S. aureus NRS384 (MRSA); set-up: MIC NRS 384 (MRSA): unit not given here; details: for MIC: Staphylococcus aureus, read-out: MIC NRS 384 (MRSA)
How it was run: (§1)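 Two-fold dilutions from 64 to 0.0625 μg/ml final, 1% DMSO, were inoculated at ~5.0×10^5 cfu/ml in the strain's test medium and kept 20 h at 37 °C in ambient atmosphere. Colonies were grown on MHA, with S. pneumoniae on blood agar under 5% CO2.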

[2] = system: Staphylococcus aureus ATCC 29213 (MSSA); experiment: Broth microdilution MIC, S. aureus ATCC 29213 (MSSA); details: read-out: MIC S. aureus ATCC 29213 (MSSA)
How it was run: as §1

[3] = system: Enterococcus faecalis ATCC 29212; experiment: Broth microdilution MIC, E. faecalis ATCC 29212; details: read-out: MIC E. faecalis ATCC 29212
How it was run: as §1

[4] = system: Enterococcus faecium ATCC 700221 (VRE); experiment: Broth microdilution MIC, E. faecium ATCC 700221 (VRE); set-up: MIC E. faecium ATCC 700221 (VRE): unit: ug/mL; details: for MIC: Enterococcus faecium, read-out: MIC E. faecium ATCC 700221 (VRE)
How it was run: as §1

[5] = system: Streptococcus pneumoniae ATCC 49619; experiment: Broth microdilution MIC, S. pneumoniae ATCC 49619; details: read-out: MIC S. pneumoniae ATCC 49619
How it was run: as §1

[6] = system: Bacillus subtilis ATCC 6633; experiment: Broth microdilution MIC, B. subtilis ATCC 6633; details: read-out: MIC B. subtilis ATCC 6633
How it was run: as §1

[7] = system: Escherichia coli ATCC 25922; experiment: Broth microdilution MIC, E. coli ATCC 25922 (MHIIB w & w/o 4 mM EDTA); details: for MIC: Escherichia coli, read-out: MIC E. coli ATCC 25922; for MIC E. coli ATCC 25922 + 4 mM EDTA: with 4 mM EDTA
How it was run: as §1

[8] = broth microdilution, 37° C., 20 hours
[9] = ATCC29212, broth microdilution, 37° C., 20 hours
[10] = ATCC49619, broth microdilution, 37° C., 20 hours
[11] = ATCC6633, broth microdilution, 37° C., 20 hours
[12] = ATCC25922, without EDTA, broth microdilution, 37° C., 20 hours

SMILES	MIC [1, 8]	MIC [2, 8]	MIC [3, 9]	MIC [4, 8]	MIC [5, 10]	MIC [6, 11]	MIC [7, 12]	MIC E. coli ATCC 25922 + 4 mM EDTA [7, 8]	MIC NRS 384 (MRSA) [1, 8]	MIC E. faecium ATCC 700221 (VRE) [4, 8]	MIC ([1]; 20 h)	MIC ([2]; 20 h)	MIC ([3]; ATCC29212, 20 h)	MIC ([4]; 20 h)	MIC ([5]; ATCC49619, 20 h)	MIC ([6]; ATCC6633, 20 h)	MIC ([7]; ATCC25922, 20 h)
CC(C)(C)OC(=O)N1CCC(n2ncc3nc(NCc4ccc(Cl)c(Cl)c4)[nH]c(=O)c32)C1 (stereo not drawn) [Compound 98, tert-Butyl 3-(5-((3,4-dichlorobenzyl)amino)-7-oxo-6,7-dihydro-1H-pyrazolo[4,3-d]pyrimidin-1-yl)pyrrolidine-1-carboxylate]	8 µg/mL (≈ 16.7 µM)	8 µg/mL (≈ 16.7 µM)	> 64 µg/mL	4 µg/mL (≈ 8.34 µM)	16 µg/mL (≈ 33.4 µM)	2 µg/mL (≈ 4.17 µM)	> 64 µg/mL	>64 µg/mL	–	–	–	–	–	–	–	–	–
Cl.NCCOCCn1ncc2nc(NCc3ccc(Cl)c(Cl)c3)[nH]c(=O)c21 [Compound 99, 1-(2-(2-aminoethoxy)ethyl)-5-((3,4-dichlorobenzyl)amino)-1H-pyrazolo[4,3-d]pyrimidin-7(6H)-one hydrochloride]	64 µg/mL	64 µg/mL	32 µg/mL	32 µg/mL	4 µg/mL	2 µg/mL	> 64 µg/mL	64 µg/mL	–	–	–	–	–	–	–	–	–
CC(C)(C)OC(=O)NCCOCCn1ncc2nc(NCc3ccc(Cl)c(Cl)c3)[nH]c(=O)c21 [Compound 100, tert-Butyl (2-(2-(5-((3,4-dichlorobenzyl)amino)-7-oxo-6,7-dihydro-1H-pyrazolo[4,3-d]pyrimidin-1-yl)ethoxy)ethyl)carbamate]	–	–	–	–	–	–	–	>64 µg/mL	–	–	> 64 µg/mL	> 64 µg/mL	> 64 µg/mL	4 µg/mL (≈ 8.04 µM)	8 µg/mL (≈ 16.1 µM)	2 µg/mL (≈ 4.02 µM)	> 64 µg/mL
Cl.O=c1[nH]c(NCc2ccc(Cl)c(Cl)c2)nc2cn(Cn3cncn3)nc12 [Compound 103, 2-((1H-1,2,4-triazol-1-yl)methyl)-5-((3,4-dichlorobenzyl)amino)-2H-pyrazolo[4,3-d]pyrimidin-7(6H)-one hydrochloride]	64 µg/mL	64 µg/mL	> 64 µg/mL	64 µg/mL	16 µg/mL	32 µg/mL	> 64 µg/mL	64 µg/mL	–	–	–	–	–	–	–	–	–
COCC(COC)n1ncc2nc(NCc3ccc(Cl)c(Cl)c3)[nH]c(=O)c21 [Compound 106, 5-((3,4-Dichlorobenzyl)amino)-1-(1,3-dimethoxypropan-2-yl)-1H-pyrazolo[4,3-d]pyrimidin-7(6H)-one]	32 µg/mL (≈ 77.6 µM)	64 µg/mL (≈ 155 µM)	> 64 µg/mL	32 µg/mL (≈ 77.6 µM)	32 µg/mL (≈ 77.6 µM)	32 µg/mL (≈ 77.6 µM)	> 64 µg/mL	>64 µg/mL	–	–	–	–	–	–	–	–	–
O=c1[nH]c(NCc2ccc(Cl)c(Cl)c2)nc2cnn(C(CO)CO)c12 [Compound 107, 5-((3,4-Dichlorobenzyl)amino)-1-(1,3-dihydroxypropan-2-yl)-1H-pyrazolo[4,3-d]pyrimidin-7(6H)-one]	> 64 µg/mL	> 64 µg/mL	> 64 µg/mL	> 64 µg/mL	16 µg/mL (≈ 41.6 µM)	32 µg/mL (≈ 83.3 µM)	> 64 µg/mL	>64 µg/mL	–	–	–	–	–	–	–	–	–
Cl.O=c1[nH]c(NCc2ccc(Cl)c(Cl)c2)nc2cnn(Cc3ccccn3)c12 [Compound 109, 5-((3,4-Dichlorobenzyl)amino)-1-(pyridin-2-ylmethyl)-1H-pyrazolo[4,3-d]pyrimidin-7(6H)-one hydrochloride]	64 µg/mL	> 64 µg/mL	> 64 µg/mL	4 µg/mL	4 µg/mL	2 µg/mL	> 64 µg/mL	>64 µg/mL	–	–	–	–	–	–	–	–	–
Cl.O=c1[nH]c(NCc2ccc(Cl)c(Cl)c2)nc2cnn(CCc3cccnc3)c12 [Compound 110, 5-((3,4-Dichlorobenzyl)amino)-1-(2-(pyridin-3-yl)ethyl)-1H-pyrazolo[4,3-d]pyrimidin-7(6H)-one hydrochloride]	–	4 µg/mL	4 µg/mL	–	4 µg/mL	1 µg/mL	> 64 µg/mL	>64 µg/mL	2/2	2/2	–	–	–	–	–	–	–
Cl.O=c1[nH]c(NCc2ccc(Cl)c(Cl)c2)nc2cnn(CCc3ccccn3)c12 [Compound 111, 5-((3,4-Dichlorobenzyl)amino)-1-(2-(pyridin-2-yl)ethyl)-1H-pyrazolo[4,3-d]pyrimidin-7(6H)-one hydrochloride]	–	4 µg/mL	8 µg/mL	–	4 µg/mL	1 µg/mL	> 64 µg/mL	>64 µg/mL	2/2	2/2	–	–	–	–	–	–	–
Cl.O=c1[nH]c(NCc2ccc(Cl)c(Cl)c2)nc2cnn(Cc3cnccn3)c12 [Compound 112, 5-((3,4-Dichlorobenzyl)amino)-1-(pyrazin-2-ylmethyl)-1H-pyrazolo[4,3-d]pyrimidin-7(6H)-one hydrochloride]	–	4 µg/mL	8 µg/mL	–	4 µg/mL	1 µg/mL	> 64 µg/mL	>64 µg/mL	4/4	2/2	–	–	–	–	–	–	–

Continued, in another order:

MIC [1, 8]	MIC [2, 8]	MIC [3, 9]	MIC [4, 8]	MIC [5, 10]	MIC [6, 11]	MIC [7, 12]	MIC E. coli ATCC 25922 + 4 mM EDTA [7, 8]	MIC NRS 384 (MRSA) [1, 8]	MIC E. faecium ATCC 700221 (VRE) [4, 8]	SMILES	MIC ([1]; 20 h)	MIC ([2]; 20 h)	MIC ([3]; ATCC29212, 20 h)	MIC ([4]; 20 h)	MIC ([5]; ATCC49619, 20 h)	MIC ([6]; ATCC6633, 20 h)	MIC ([7]; ATCC25922, 20 h)
–	4 µg/mL	4 µg/mL	–	4 µg/mL	2 µg/mL	> 64 µg/mL	64 µg/mL	8/8	2/4	Cl.O=c1[nH]c(NCc2ccc(Cl)c(Cl)c2)nc2cnn(Cn3cncn3)c12 [Compound 101, 1-((1H-1,2,4-triazol-1-yl)methyl)-5-((3,4-dichlorobenzyl)amino)-1H-pyrazolo[4,3-d]pyrimidin-7(6H)-one hydrochloride]	–	–	–	–	–	–	–
–	4 µg/mL (≈ 10.1 µM)	4 µg/mL (≈ 10.1 µM)	–	4 µg/mL (≈ 10.1 µM)	1 µg/mL (≈ 2.54 µM)	> 64 µg/mL	>64 µg/mL	4/4	2/4	O=c1[nH]c(NCc2ccc(Cl)c(Cl)c2)nc2cnn(CC3CCCO3)c12 (stereo not drawn) [Compound 102, 5-((3,4-Dichlorobenzyl)amino)-1-((tetrahydrofuran-2-yl)methyl)-1H-pyrazolo[4,3-d]pyrimidin-7(6H)-one]	–	–	–	–	–	–	–
–	4 µg/mL (≈ 9.65 µM)	4 µg/mL (≈ 9.65 µM)	–	4 µg/mL (≈ 9.65 µM)	1 µg/mL (≈ 2.41 µM)	> 64 µg/mL	>64 µg/mL	4/4	2/2	O=c1[nH]c(NCc2ccc(Cl)c(Cl)c2)nc2cnn(CCSCCO)c12 [Compound 104, 5-((3,4-Dichlorobenzyl)amino)-1-(2-((2-hydroxyethyl)thio)ethyl)-1H-pyrazolo[4,3-d]pyrimidin-7(6H)-one]	–	–	–	–	–	–	–
–	4 µg/mL (≈ 9.75 µM)	8 µg/mL (≈ 19.5 µM)	–	4 µg/mL (≈ 9.75 µM)	1 µg/mL (≈ 2.44 µM)	> 64 µg/mL	>64 µg/mL	4/2	4/2	O=c1[nH]c(NCc2ccc(Cl)c(Cl)c2)nc2cnn(CC3COCCO3)c12 (stereo not drawn) [Compound 105, 1-((1,4-Dioxan-2-yl)methyl)-5-((3,4-dichlorobenzyl)amino)-1H-pyrazolo[4,3-d]pyrimidin-7(6H)-one]	–	–	–	–	–	–	–
–	4 µg/mL (≈ 9.13 µM)	8 µg/mL (≈ 18.3 µM)	–	4 µg/mL (≈ 9.13 µM)	2 µg/mL (≈ 4.56 µM)	> 64 µg/mL	>64 µg/mL	8/4	4/2	O=c1[nH]c(NCc2ccc(Cl)c(Cl)c2)nc2cnn(CCOC3CCOCC3)c12 [Compound 108, 5-((3,4-Dichlorobenzyl)amino)-1-(2-((tetrahydro-2H-pyran-4-yl)oxy)ethyl)-1H-pyrazolo[4,3-d]pyrimidin-7(6H)-one]	–	–	–	–	–	–	–

Reference: patent US10723741B1, “DNA polymerase IIIC inhibitors and use thereof” (Acurx Pharmaceuticals, LLC, priority 2018, dated 2020)
